Data from patent publication US5731344A, “Bishispidine compounds, processes for their production and pharmaceutical agents containing these compounds” (Boehringer Mannheim GmbH, priority 1993, dated 1998).

test system: Lysozyme; assay: Test for the inhibitory activity on the formation of AGE (lysozyme dimer formation, SDS gel electrophoresis, densitometry); type: biochemical; details: AGE-inhibitory action, lysozyme 20 mg/ml, pH 7.4, 200 mmol/l glucose or xylose, 24 to 120 hours
Method: Test for the inhibitory activity on the formation of AGE
Lysozyme is dissolved at a final concentration of 20 mg/ml in 100 mmol/l potassium phosphate buffer, pH 7.4. 5 mmol/l sodium azide is added as a preservative. The formation of AGE is initiated by the addition of 200 mmol/l glucose or xylose. Test substances or the reference substance aminoguanidine are added at different concentrations in order to quantify an inhibitory activity on AGE formation. Solvent controls as well as control mixes are also run in the presence of 200 mmol/l sorbitol or xylite for correction purposes. The incubation period of the reaction mixtures is between 24 and 120 hours depending on the sugar used and is selected in such a way that mainly dimers are formed and other higher molecular oligomerization products are formed only to a slight extent.
The samples are prepared and SDS gel electrophoresis is carried out according to literature references. Summarized briefly the samples are diluted with the 4-fold amount of sample buffer (50 mmol/l Tris^* acetate, pH 7.5, 1% SDS, 5 mmol/l dithiothreitol) and heated for 3 minutes to 95° C. Aliquots are applied to 8-18% gradient-SDS gels. In order to determine the molecular weight molecular weight markers are also used in the range 14-340 kD. The separation according to molecular weight is achieved under the following operating conditions: voltage: 600 V, current intensity: 50 mA, power: 30 W, run period: ~60 minutes.
After the gel electrophoresis the gels are fixed according to standard methods and stained with Coomassie Blue. After destaining overnight and drying, the gels are measured densitometrically (Pharmacia Ultra Scan XL using GelScan XL software).
In order to determine the threshold concentration and the IC50 values of the AGE-inhibitory action of the test substances, the dimer formation is plotted semi-logarithmically against the test concentration of the substance and the above-mentioned parameters are calculated.

| Compound | IC50 [µM] | Threshold concentration [µmol/L] |
| --- | --- | --- |
| COc1ccc(C(c2c(O)cc(/C=C/c3ccc(O)c(O)c3)oc2=O)c2c(O)cc(/C=C/c3ccc(O)c(O)c3)oc2=O)cc1 [Example 5] | 2 | > 1 |
| O=c1oc(/C=C/c2ccc(O)c(O)c2)cc(O)c1C(c1ccc(O)c(O)c1)c1c(O)cc(/C=C/c2ccc(O)c(O)c2)oc1=O [Example 7] | 4 | 2 |
| COc1ccc(C(c2c(O)cc(/C=C/c3ccc(O)c(O)c3)oc2=O)c2c(O)cc(/C=C/c3ccc(O)c(O)c3)oc2=O)cc1OC [Example 6] | 5 | > 1 |
| COc1ccc(C(c2c(O)cc(/C=C/c3ccc(O)c(O)c3)oc2=O)c2c(O)cc(/C=C/c3ccc(O)c(O)c3)oc2=O)cc1O [Example 3, 3,3'-(3-Hydroxy-4-methoxybenzylidene)bis[6-[2-(3,4-dihydroxyphenyl)vinyl]-4-hydroxy-2H-pyran-2-one]] | 2 | > 1 |
| CC(C)(C)c1cc(C(c2c(O)cc(/C=C/c3ccc(O)c(O)c3)oc2=O)c2c(O)cc(/C=C/c3ccc(O)c(O)c3)oc2=O)cc(C(C)(C)C)c1O [Example 4, 3,3'-(4-Hydroxy-3,5-(bis-1,1-dimethylethyl)benzylidene]bis[6-[2-(3,4-dihydroxyphenyl)vinyl]-4-hydroxy-2H-pyran-2-one]] | 2 | > 1 |
| O=c1oc(/C=C/c2ccc(O)c(O)c2)cc(O)c1C(c1ccc(Cl)cc1)c1c(O)cc(/C=C/c2ccc(O)c(O)c2)oc1=O [Example 1, 3,3'-(4-Chlorobenzylidene)bis[6-[2-(3,4-dihydroxyphenyl)vinyl]-4-hydroxy-2H-pyran-2-one]] | 4 | > 1 |
| N#Cc1ccc(C(c2c(O)cc(/C=C/c3ccc(O)c(O)c3)oc2=O)c2c(O)cc(/C=C/c3ccc(O)c(O)c3)oc2=O)cc1 [Example 8] | 22 | 10 |
| N=C(N)NN [aminoguanidine, reference compound] | 4500 | 500 |
